Data on 2 substances can be found in article PMC5171801, “Identification and Characterization of Roseltide, a Knottin-type Neutrophil Elastase Inhibitor Derived from Hibiscus sabdariffa” (Scientific Reports, 2016).

Ends that are not written are not given here.

Data set [1] in a line: Human serum stability. Format: in vitro ADME. The following applies: 0.1 M peptide, 25% human serum in DMEM without phenol red, 37 °C, 0, 24 and 48 h, ethanol precipitation, RP-UHPLC peak area, n = 3. The procedure:
0.1 M of purified roseltide rT1 was prepared in 25% human serum in DMEM medium without phenol red. The test samples were incubated at 37 °C. DALK was used as a positive control. Samples were collected at various time points (0, 24 and 48 h). The collected samples were subjected to protein precipitation with 100% ethanol and centrifugation at 180,000 g for 5 min at 4 °C. The supernatant was collected for analysis.

Data set [2] in a line: Acid stability. It counts as physicochemical. The following applies: in 0.2 M HCl, 37 °C, 0-120 min, RP-UHPLC peak area as % of initial, n = 3.
Protocol: 0.1 M of purified roseltide rT1 was dissolved in 0.2 M HCl or phosphate buffered saline (PBS) (control) and incubated at 37 °C. Samples were collected at various time points (0, 15, 30, 45, 60 and 120 min).
For data set [3], the target named is T1, Human neutrophil elastase (HNE) (Homo sapiens, UniProt P08246).
T1 construct: purchased Sigma-Aldrich or ThermoFisher Scientific (general statement only)
T1 sequence (P08246 30-267): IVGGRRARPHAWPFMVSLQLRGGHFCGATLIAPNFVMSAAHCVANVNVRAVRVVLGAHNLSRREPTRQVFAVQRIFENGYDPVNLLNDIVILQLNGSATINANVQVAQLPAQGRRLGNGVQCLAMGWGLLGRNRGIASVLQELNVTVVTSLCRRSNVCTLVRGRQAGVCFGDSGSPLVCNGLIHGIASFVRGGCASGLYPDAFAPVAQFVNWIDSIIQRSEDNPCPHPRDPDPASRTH
The experiment in a line: Human neutrophil elastase inhibition assay. Format: biochemical. The following applies: 1.75 U/mL HNE, 0.6 mM N-Methoxysuccinyl-Ala-Ala-Pro-Val p-nitroanilide, 100 mM Tris buffer pH 8.0, 37 °C, absorbance 405 nm for 1 h, normalized initial velocity, mean n = 3; read-out: IC50, enzymatic activity of human neutrophil elastase. As to the method:
Human neutrophil elastase (HNE) activity was determined by measuring the release of p-nitroanilide at 405 nm at 37 °C using N-Methoxysuccinyl-Ala-Ala-Pro-Val p-nitroanilide as substrates. Purified roseltide rT1 was incubated with 1.75 U/mL HNE and 0.6 mM substrate in 100 mM Tris buffer (pH 8.0) at 37 °C; absorbance was measured continuously for 1 h. […] The results were presented as normalized initial velocity.

The test system of data set [4] is PAR2-cAMP-CHO cells. Put plainly: Glosensor cAMP assay, neutrophil elastase-stimulated cAMP accumulation. It counts as cell-based, Chinese Hamster. Particulars: co-incubation of HNE with peptide; CHO-K1 co-expressing PAR2 and Glosensor cAMP biosensor; luminescence 20 min, area under the curve; n = 3. The procedure: Huh7 (human liver carcinoma cells), A549 (human lung adenocarcinoma epithelial cells) cells, and Chinese Hamster Ovary-K1 cells (CHO-K1) were cultured in Dulbecco’s Modified Eagle’s Medium (DMEM)/Ham’s F12 containing 15 mM HEPES and L-glutamine and supplemented with 10% fetal bovine serum, 100 U/mL of penicillin, and streptomycin. The cells were grown in a 5% CO2 humidified incubator at 37 °C. CHO-K1 cells were transfected with pGlosensor-20F plasmid by electroporation and selected using 500 μg/mL hygromycin. CHO-K1 cells stably expressing the pGlosensor-20F construct (cAMP-CHO) were then transfected with pCMV6-XL5 encoding PAR2 receptor (NM 005242.3) and selected using 500 μg/mL G418. Stable cell lines co-expressing both pGlosensor-20F and PAR2 receptor constructs (PAR2-cAMP-CHO) were maintained with 500 μg/mL hygromycin and 500 μg/mL G418.
Glosensor cAMP assays were performed according to the manufacturer’s instructions. […] Luminescent intensity was measured using a microplate reader (Tecan Infinite 200 Pro, Switzerland); the plate was pre-read for 30 s to establish basal luminescent level. Following treatment, luminescent levels were continuously monitored for 20 min. The results are presented as fold change relative to basal luminescent levels and were quantified using the area under the curve.

Data set [5] deals with trypsin (Bos taurus, UniProt P00760). The following applies: 0.1 M peptide, 100 mM Tris buffer pH 8, trypsin 50:1 (w/v), 37 °C, 0-120 min, RP-UHPLC peak area, n = 3. The procedure: (§1) 0.1 M of purified roseltide rT1 was dissolved in 100 mM Tris buffer (pH 8) and incubated with trypsin (Catalog number: T1426, Roche Applied Science, US) in a 50:1 (w/v) ratio at 37 °C. 0.1 M of purified roseltide rT1 was dissolved in 0.2 M HCl and incubated with pepsin (Catalog number: 03117901001, Roche Applied Science, US) in a 50:1 (w/v) ratio at 37 °C. […] Samples were collected at various time points (0, 15, 30, 45, 60 and 120 min).
Sequence of trypsin (P00760 24-246): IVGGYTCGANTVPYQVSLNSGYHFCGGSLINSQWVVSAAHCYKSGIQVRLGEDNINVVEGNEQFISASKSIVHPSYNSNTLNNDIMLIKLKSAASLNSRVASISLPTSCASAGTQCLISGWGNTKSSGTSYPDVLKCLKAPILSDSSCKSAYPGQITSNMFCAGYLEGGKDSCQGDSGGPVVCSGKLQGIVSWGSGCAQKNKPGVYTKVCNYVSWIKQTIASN
(§2) All collected samples from various stability assays were analyzed by RP-UHPLC with a linear gradient of mobile phase A (0.05% TFA/H2O) and mobile phase B (0.05% TFA/ACN) on C18 column (3.6 μm particle size; 2.1 mm internal diameter; 10 cm length) (Phenomenex, US). The resulting peaks were collected and the identified by MALDI-TOF MS. The results were expressed as percentage of initial concentration using the peak area of the UHPLC profile.

The target of data set [6] is pepsin (Sus scrofa, UniProt P00791). Particulars: 0.1 M peptide, 0.2 M HCl, pepsin 50:1 (w/v), 37 °C, 0-120 min, RP-UHPLC peak area, n = 3. As to the method:
as §1, §2

The target of data set [7] is human neutrophil elastase (human) (UniProt P08246).

Sequence of pepsin (P00791 60-385): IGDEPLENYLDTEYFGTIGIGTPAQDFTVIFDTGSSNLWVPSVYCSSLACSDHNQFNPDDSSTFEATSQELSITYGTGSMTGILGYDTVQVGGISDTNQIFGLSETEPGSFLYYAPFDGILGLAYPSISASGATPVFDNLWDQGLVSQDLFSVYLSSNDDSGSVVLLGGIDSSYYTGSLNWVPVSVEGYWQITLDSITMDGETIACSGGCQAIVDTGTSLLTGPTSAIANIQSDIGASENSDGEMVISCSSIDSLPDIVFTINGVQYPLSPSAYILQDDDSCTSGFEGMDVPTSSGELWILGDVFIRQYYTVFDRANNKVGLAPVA

Regarding “CIPRGGICLVALSGCCNSPGCIFGICA (also: bicyclic or more (positions not given here)) [roseltide rT1, 27-residue cystine-knot peptide purified from Hibiscus sabdariffa calyces; disulfides Cys1-Cys16, Cys8-Cys21, Cys15-Cys26]”, the “human serum stability (resistance against degradation)” value in data set [1] is “resistant”. Moreover, in data set [2], the “acid stability (resistance against degradation)” value was “resistant”. For the same substance, the IC50 in data set [3] stood at 470 nM. Moreover, the “effect on human neutrophil elastase-stimulated cAMP accumulation” value in data set [4] is on record as “significantly suppressed”. In data set [5], the “trypsin stability (resistance against degradation)” value is reported as “resistant”. Moreover, the “pepsin stability (resistance against degradation)” value in data set [6] is recorded as “resistant”.
roseltide rT1 (peptide) returned an inhibition of the enzymatic activity of human neutrophil elastase (release of p-nitroanilide from N-methoxysuccinyl-Ala-Ala-Pro-Val p-nitroanilide, 405 nm, 37 °C, 100 mM Tris pH 8.0), IC50 in data set [7] of 0.47 μM.

By IC50 is commonly meant the concentration needed to halve the response being measured.
